Assay: Example 2: phase 3 trial, enavogliflozin 0.3 mg vs dapagliflozin 10 mg once a day for 24 weeks added to metformin in patients with type 2 diabetes (same efficacy, exploratory and safety endpoints)
Type: in vivo, human
Conditions: for Non-inferiority (UCI < 0.35%): HbA1c change at week 24, vs dapagliflozin
Description: Subjects who met the inclusion/exclusion criteria were administered a placebo of the clinical trial drug under single-blind (subject blinding) conditions during a 2-week run-in period while continuing to receive metformin. […] The randomized subjects were administered two tablets of the clinical trial drug for each administration group once a day, and then visited the institution at weeks 6, 12, 18, and 24 during the 24-week administration period to conduct efficacy and safety evaluations.
• 1. Change in HbA1c at week 24 after administration of clinical trial drug compared to Visit 2 (randomization)
• 1. Change in HbA1c at each time point of weeks 6, 12, and 18 after administration of clinical trial drug compared to Visit 2 (randomization) • 2. Change in FPG at each time point of weeks 6, 12, 18, and 24 after administration of clinical trial drug compared to Visit 2 (randomization) • 3. Proportion of subjects achieving HbA1c<7% at each time point of weeks 6, 12, 18, and 24 after administration of clinical trial drug • 4. Proportion of subjects achieving HbA1c<6.5% at each time point of weeks 6, 12, 18, and 24 after administration of clinical trial drug • 5. Proportion of subjects achieving therapeutic response (HbA1c change (HbA1c at Visit 2-HbA1c at each evaluation time point)>0.5% or HbA1c<7% at each evaluation time point compared to Visit 2 (randomization)) at each time point of weeks 6, 12, 18 and 24 after administration of clinical trial drug
• 1. Change in fasting c-peptide at each time point of weeks 6, 12, 18, and 24 after administration of clinical trial drug compared to Visit 2 (randomization) • 2. Change in body weight at each time point of weeks 6, 12, 18, and 24 after administration of clinical trial drug compared to Visit 2 (randomization) • 3. Change in fasting lipid concentration (total cholesterol, LDL-C, HDL-C, and triglycerides) at each time point of weeks 6, 12, 18, and 24 after administration of clinical trial drug compared to Visit 2 (randomization) • 4. Changes in systolic or diastolic blood pressure at each time point of weeks 6, 12, 18, and 24 after administration of clinical trial drug compared to Visit 2 (randomization) • 5. Changes in β-cell function and insulin resistance measured by HOMA-β and HOMA-IR at each time point of weeks 6, 12, 18, and 24 after administration of clinical trial drug compared to Visit 2 (randomization) • 6. Changes in renal function-related indicators (UACR, UGCR) measured by UACR at each time point of weeks 6, 12, 18, and 24 after administration of clinical trial drug compared to Visit 2 (randomization) • 7. Changes in obesity-related indicators (adiponectin, leptin) at each time point of weeks 6, 12, 18, and 24 after administration of clinical trial drug compared to Visit 2 (randomization)

[1] = Baseline, modified per-protocol set 1, enavogliflozin 0.3 mg, dapagliflozin 10 mg
[2] = Baseline, per-protocol set, enavogliflozin 0.3 mg, dapagliflozin 10 mg
[3] = Week 6, PPS, enavogliflozin minus dapagliflozin

In the case of `OC[C@H]1O[C@@H](c2cc(Cc3ccc(C4CC4)cc3)c(Cl)c3c2CCO3)[C@H](O)[C@@H](O)[C@@H]1O` [Enavogliflozin, (2S,3R,4R,5S,6R)-2-(7-chloro-6 (4-cyclopropylbenzyl)-2,3-dihydrobenzofuran-4-yl)-6-(hydroxymethyl)tetrahydro-2H-pyran-3,4,5-triol], the “Incidence of serious adverse drug reactions” value (24 weeks) is reported as 1 case, the “Incidence of adverse events or serious adverse events between the test group and the control” value (24 weeks, vs dapagliflozin) is reported as “no statistically significant differences” and the Adiponectin, Mean (SD) (Baseline, PPS) is reported as 6.96 µg/mL. The Adiponectin, Median (Baseline, PPS) was 5.99 µg/mL, the “HOMA-IR, Mean (SD)” value (Baseline, PPS) was 3.45 and the “HOMA-IR, Median” value (Baseline, PPS) was 2.67. The “HOMA-β, Mean (SD)” value (Baseline, PPS) was 45.53, the “HOMA-β, Median” value (Baseline, PPS) was 35.00 and the “Leptin, Mean (SD)” value (Baseline, PPS) was 12.21 ng/mL. The “Leptin, Median” value (Baseline, PPS) was 8.00 ng/mL, the “UACR, Mean (SD)” value (Baseline, PPS) was 38190 mg/kg and the “UACR, Median” value (Baseline, PPS) was 10.10 g/kg. The “UGCR, Mean (SD)” value (Baseline, PPS) was 1.54 mg/mg, the “UGCR, Median” value (Baseline, PPS) was 0.14 mg/mg and the “HDL-C, Mean (SD)” value (Baseline, mPPS1) was 50.94(10.85) mg/dL. The “HDL-C, Median” value (Baseline, mPPS1) was 50.00 mg/dL, the “LDL-C, Mean (SD)” value (Baseline, mPPS1) was 86.52(30.53) mg/dL and the “LDL-C, Median” value (Baseline, mPPS1) was 83.00 mg/dL. For the same compound, the “Triglycerides, Mean (SD)” value (Baseline, mPPS1) was 122.10(85.91) mg/dL, the “Triglycerides, Median” value (Baseline, mPPS1) was 101.00 mg/dL and the “Diastolic blood pressure, Mean (SD)” value (Baseline, mPPS2) was 77.04 mmHg. The “Diastolic blood pressure, Median” value (Baseline, mPPS2) was 77.00 mmHg, the “Systolic blood pressure, Mean (SD)” value (Baseline, mPPS2) was 129.72(13.64) mmHg and the “Systolic blood pressure, Median” value (Baseline, mPPS2) was 130.00 mmHg. For the same compound, the “fasting Total cholesterol, Mean (SD)” value [1] was 151.43(32.91) mg/dL, the “fasting Total cholesterol, Median” value [1] was 150.00 mg/dL and the “FPG, Mean (SD)” value [2] was 145.35 mg/dL. The “FPG, Median” value [2] was 147.00 mg/dL, the “HbA1c, Mean (SD)” value [2] was 7.75% and the “HbA1c, Median” value [2] was 7.49%. For the same compound, the “body weight, Mean (SD)” value [2] was 70.17(11.06) kg, the “body weight, Median” value [2] was 67.40 kg and the “fasting c-peptide, Mean (SD)” value [2] was 0.72(0.29) ng/mL. For the same compound, the “fasting c-peptide, Median” value [2] was 0.66 ng/mL, the “Non-inferiority (UCI < 0.35%)” value was “Yes” and the “Non-inferiority (UCI < 0.35%)” value (listed as enavogliflozin) was “not inferior”. The Adiponectin change from baseline, ANCOVA LS mean (SE) (Week 6, PPS) was 0.92 µg/mL, the Adiponectin change from baseline, Mean (SD) (Week 6, PPS) was 0.84 µg/mL and the Adiponectin change from baseline, Median (Week 6, PPS) was 0.58 µg/mL. The Adiponectin, Mean (SD) (Week 6, PPS) was 7.8 µg/mL, the Adiponectin, Median (Week 6, PPS) was 6.87 µg/mL and the “HOMA-IR change from baseline, ANCOVA LS mean (SE)” value (Week 6, PPS) was −1.47. The “HOMA-IR change from baseline, Mean (SD)” value (Week 6, PPS) was −1.35, the “HOMA-IR change from baseline, Median” value (Week 6, PPS) was −0.91 and the “HOMA-IR, Mean (SD)” value (Week 6, PPS) was 2.10. For the same compound, the “HOMA-IR, Median” value (Week 6, PPS) was 1.72, the “HOMA-β change from baseline, ANCOVA LS mean (SE)” value (Week 6, PPS) was 7.22 and the “HOMA-β change from baseline, Mean (SD)” value (Week 6, PPS) was 5.87. The “HOMA-β change from baseline, Median” value (Week 6, PPS) was 8.10, the “HOMA-β, Mean (SD)” value (Week 6, PPS) was 51.39 and the “HOMA-β, Median” value (Week 6, PPS) was 43.00. For the same compound, the “Leptin change from baseline, ANCOVA LS mean (SE)” value (Week 6, PPS) was -2.43 ng/mL, the “Leptin change from baseline, Mean (SD)” value (Week 6, PPS) was -2.54 ng/mL and the “Leptin change from baseline, Median” value (Week 6, PPS) was -1.36 ng/mL. The “Leptin, Mean (SD)” value (Week 6, PPS) was 9.66 ng/mL, the “Leptin, Median” value (Week 6, PPS) was 5.99 ng/mL and the “UACR change from baseline, ANCOVA LS mean (SE)” value (Week 6, PPS) was -12.75 g/kg. For the same compound, the “UACR change from baseline, Mean (SD)” value (Week 6, PPS) was -11440 mg/kg, the “UACR change from baseline, Median” value (Week 6, PPS) was 0.00 g/kg and the “UACR, Mean (SD)” value (Week 6, PPS) was 26760 mg/kg. For the same compound, the “UACR, Median” value (Week 6, PPS) was 11.40 g/kg, the “UGCR change from baseline, ANCOVA LS mean (SE)” value (Week 6, PPS) was 65.72 mg/mg and the “UGCR change from baseline, Mean (SD)” value (Week 6, PPS) was 63.13 mg/mg. For the same compound, the “UGCR change from baseline, Median” value (Week 6, PPS) was 57.91 mg/mg, the “UGCR, Mean (SD)” value (Week 6, PPS) was 64.66 mg/mg and the “UGCR, Median” value (Week 6, PPS) was 58.45 mg/mg. For the same compound, the “HOMA-IR change from baseline, LS mean difference” value [3] was −0.16, the “HOMA-β change from baseline, LS mean difference” value [3] was 9.01 and the “UACR change from baseline, LS mean difference” value [3] was -20.88 g/kg.

Source: patent US20260130933A1, “PHARMACEUTICAL COMPOSITION FOR PREVENTION OR TREATMENT OF NEPHROPATHY AND/OR DIABETES MELLITUS, COMPRISING ENAVOGLIFLOZIN” (DAEWOONG PHARMACEUTICAL CO., LTD., priority 2022, published 2026)
